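Each compound was tested at five concentrations against cells in 96-well plates for 48 hours. The concentration for 50% growth inhibition is given as GI50.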 Activity calls are given as the source filed them. No stated cut-off is given here; in the data, active = GI50 up to about 1.1 µM and inactive = higher.
Columns and labels:
Assay in all cases: growth of human tumour cells (NCI), 48 h
786-0 = system: 786-0
A498 = system: A498
A549 = system: A549
CAKI-1 = system: CAKI-1
DU-145 = system: DU-145
EKVX = system: EKVX
HCC 2998 = system: HCC 2998
HCT-15 = system: HCT-15
HL-60 = system: HL-60
Hs-578T = system: Hs-578T
M14 = system: M14
MDA-MB-435 = system: MDA-MB-435
OVCAR-5 = system: OVCAR-5
PC-3 = system: PC-3
SK-MEL-2 = system: SK-MEL-2
SK-OV-3 = system: SK-OV-3
SNB-75 = system: SNB-75
U-251 = system: U-251
UACC-257 = system: UACC-257
OVCAR-4 = system: OVCAR-4

Row | SMILES | GI50 (786-0) | GI50 (A498) | GI50 (A549) | GI50 (CAKI-1) | GI50 (DU-145) | GI50 (EKVX) | GI50 (HCC 2998) | GI50 (HCT-15) [µM] | GI50 (HL-60) | GI50 (Hs-578T) | GI50 (M14) | GI50 (MDA-MB-435) | GI50 (OVCAR-5) | GI50 (PC-3) | GI50 (SK-MEL-2) | GI50 (SK-OV-3) | GI50 (SNB-75) | GI50 (U-251) | GI50 (UACC-257) | GI50 (OVCAR-4)
1 | COc1cc(C2C3=C(COC3=O)Oc3cc4c(cc32)OCO4)cc(OC)c1OC (stereo unspecified) | 0.0333 µM (active) | 0.00488 µM (active) | 0.0354 µM (active) | 0.01 µM (active) | 0.0256 µM (active) | 0.015 µM (active) | 0.0402 µM (active) | < 0.0158 | 0.0154 µM (active) | 0.0521 µM (active) | 0.0326 µM (active) | 0.0295 µM (active) | 0.274 µM (active) | 0.0331 µM (active) | 0.039 µM (active) | < 0.0144 µM (active) | 0.00993 µM (active) | 0.0262 µM (active) | 0.0673 µM (active) | 
2 | C=C(C)CNCCN | > 100 µM (inactive) | > 100 µM (inactive) | > 100 µM (inactive) | > 100 µM (inactive) | > 100 µM (inactive) | > 100 µM (inactive) |  | > 100 | > 100 µM (inactive) | > 100 µM (inactive) | > 100 µM (inactive) | > 100 µM (inactive) | > 100 µM (inactive) | > 100 µM (inactive) | > 100 µM (inactive) |  |  | > 100 µM (inactive) | > 100 µM (inactive) | > 100 µM (inactive)
3 | CC1(CCC(=O)OC2CCCCC2)OCCO1 | > 100 µM (inactive) | > 100 µM (inactive) | > 100 µM (inactive) | > 100 µM (inactive) | > 100 µM (inactive) | > 100 µM (inactive) |  | > 100 | > 100 µM (inactive) | > 100 µM (inactive) | > 100 µM (inactive) | > 100 µM (inactive) | > 100 µM (inactive) | > 100 µM (inactive) | > 100 µM (inactive) | > 100 µM (inactive) | > 100 µM (inactive) | > 100 µM (inactive) | > 100 µM (inactive) | > 100 µM (inactive)
4 | Oc1ccc(C[C@@H]2CN[C@H](Cc3ccc(O)c(Br)c3)CN2)cc1 | > 100 µM (inactive) | > 100 µM (inactive) | > 100 µM (inactive) | > 100 µM (inactive) | > 100 µM (inactive) | > 100 µM (inactive) | > 100 µM (inactive) | > 100 | > 100 µM (inactive) | > 100 µM (inactive) | > 100 µM (inactive) | > 100 µM (inactive) | > 100 µM (inactive) | > 100 µM (inactive) | > 100 µM (inactive) | > 100 µM (inactive) | > 100 µM (inactive) | > 100 µM (inactive) | > 100 µM (inactive) | > 100 µM (inactive)
5 | Nc1ncc(Br)c(NCC2(CO)CCC2)n1 | > 100 µM (inactive) | 35.6 µM (inactive) | > 100 µM (inactive) | 49.8 µM (inactive) | 81.3 µM (inactive) | 58.5 µM (inactive) | > 100 µM (inactive) | > 100 | > 100 µM (inactive) | > 100 µM (inactive) |  | > 100 µM (inactive) | 20.7 µM (inactive) | > 100 µM (inactive) | > 100 µM (inactive) |  | > 100 µM (inactive) | > 100 µM (inactive) | > 100 µM (inactive) | > 100 µM (inactive)
6 | COC(=O)C1CC(C=O)=C(SC)N1 (stereo unspecified) | > 50 µM (inactive) | > 50 µM (inactive) | > 50 µM (inactive) | > 50 µM (inactive) | > 50 µM (inactive) | > 50 µM (inactive) | > 50 µM (inactive) | > 50 |  | > 50 µM (inactive) | > 50 µM (inactive) | > 50 µM (inactive) | > 50 µM (inactive) | > 50 µM (inactive) | > 50 µM (inactive) | > 50 µM (inactive) | > 50 µM (inactive) | > 50 µM (inactive) | > 50 µM (inactive) | > 50 µM (inactive)
7 | CC(C)(C)/C(O)=C\c1nc2cc(C(F)(F)F)ccc2[nH]c1=O | > 100 µM (inactive) | > 100 µM (inactive) | > 100 µM (inactive) | > 100 µM (inactive) | > 100 µM (inactive) | > 100 µM (inactive) |  | > 100 | 0.53 µM (active) | > 100 µM (inactive) | > 100 µM (inactive) | > 100 µM (inactive) | > 100 µM (inactive) | > 100 µM (inactive) | > 100 µM (inactive) | > 100 µM (inactive) | > 100 µM (inactive) | > 100 µM (inactive) | > 100 µM (inactive) | > 100 µM (inactive)
8 | COC1=C(OC)C(=O)C(C/C=C/c2c(Cl)nc3sccn23)=C(C)C1=O | 21.5 µM (inactive) | 22.2 µM (inactive) | 11.2 µM (inactive) | 12.2 µM (inactive) | 18.5 µM (inactive) | 11.2 µM (inactive) | 18.2 µM (inactive) | 26.5 |  | 20.5 µM (inactive) | 16.2 µM (inactive) | 9.16 µM (inactive) | 16.9 µM (inactive) | 11.8 µM (inactive) | 16.4 µM (inactive) | 16.7 µM (inactive) |  | 5.87 µM (inactive) | 0.536 µM (active) | 0.398 µM (active)
9 | CSc1nc(NC(C)C)c2c(n1)Sc1nc3ccccc3n1N=C2 | 4.23 µM (inactive) | 3.09 µM (inactive) | 5.33 µM (inactive) | 28.7 µM (inactive) | 12.7 µM (inactive) | 21.1 µM (inactive) | 3.65 µM (inactive) | 36.8 | > 100 µM (inactive) | 20 µM (inactive) | 40.5 µM (inactive) | 17.4 µM (inactive) | 31.3 µM (inactive) | 19.5 µM (inactive) | 17.9 µM (inactive) | 11.1 µM (inactive) |  | 11.5 µM (inactive) | 29.1 µM (inactive) | 3.85 µM (inactive)
10 | CC(C)=c1sc(=C(C)C)c2c1=NC(C)(C)N=2 | > 100 µM (inactive) | 87.5 µM (inactive) | 51.5 µM (inactive) | 77.1 µM (inactive) | 58.3 µM (inactive) | 57.9 µM (inactive) | 27.5 µM (inactive) | 47.8 | 57.4 µM (inactive) | 53.6 µM (inactive) | 77.4 µM (inactive) | > 100 µM (inactive) | 36.5 µM (inactive) | 45.9 µM (inactive) | 26.7 µM (inactive) | > 100 µM (inactive) |  | 46 µM (inactive) | 30.9 µM (inactive) | > 100 µM (inactive)
11 | COC(=O)[C@H](Cc1ccccc1)NC(=O)N(CCC#N)CCN(C(=O)N[C@@H](Cc1ccccc1)C(=O)OC)c1ccccc1 | 9.2 µM (inactive) | 23 µM (inactive) | 47.1 µM (inactive) | 20 µM (inactive) | 29.1 µM (inactive) | 29.5 µM (inactive) | 28.2 µM (inactive) | 38.5 |  | 32.7 µM (inactive) | 24.9 µM (inactive) | 18.9 µM (inactive) | > 100 µM (inactive) | 32.1 µM (inactive) | 18.5 µM (inactive) | 46.8 µM (inactive) | 17.5 µM (inactive) | > 10 µM (inactive) | 20 µM (inactive) | 23.6 µM (inactive)
12 | C=C(CCOC)CCC1CCCCC(=C)C1=O (stereo unspecified) | > 100 µM (inactive) | > 100 µM (inactive) | > 100 µM (inactive) | > 100 µM (inactive) | > 100 µM (inactive) | > 100 µM (inactive) | > 100 µM (inactive) | > 100 | > 100 µM (inactive) | > 100 µM (inactive) | > 100 µM (inactive) | > 100 µM (inactive) | > 100 µM (inactive) | > 100 µM (inactive) | > 100 µM (inactive) | > 100 µM (inactive) | > 100 µM (inactive) | > 100 µM (inactive) |  | > 100 µM (inactive)
13 | CCOC(=O)C1=C(C)N(c2ccc(Cl)cc2)C2(O)C=CC(O)=C3C(=O)c4ccccc4C(=O)C312 (stereo unspecified) | 2.12 µM (inactive) | 15.2 µM (inactive) | 4.56 µM (inactive) | 1.96 µM (inactive) | 8.09 µM (inactive) | 4.36 µM (inactive) |  | 2.12 | 2.37 µM (inactive) | 4.26 µM (inactive) | 2.63 µM (inactive) | 2.59 µM (inactive) | 12.9 µM (inactive) | 3.34 µM (inactive) | 4.32 µM (inactive) | 10.6 µM (inactive) |  | 3.59 µM (inactive) | 18.2 µM (inactive) | 3.97 µM (inactive)
14 | COC(=O)c1cc2c(cc1O)[C@@H](NC(C)=O)CCc1cc(OC)c(OC)c(OC)c1-2 | 0.0328 µM (active) | 0.0568 µM (active) | 0.0605 µM (active) | 0.0993 µM (active) | 0.064 µM (active) | 0.0415 µM (active) | 0.0578 µM (active) | 0.0461 |  | 0.017 µM (active) | 0.0454 µM (active) | 0.0262 µM (active) | > 10 µM (inactive) | 0.0509 µM (active) | 0.084 µM (active) | 0.0951 µM (active) | 0.0299 µM (active) | 0.0342 µM (active) | 0.0715 µM (active) | 0.0432 µM (active)
15 | O=C(NCCCCNCCCNC(=O)OCc1ccccc1)OCc1ccccc1 | 21.9 µM (inactive) | 17.4 µM (inactive) | 64.4 µM (inactive) |  | 73.6 µM (inactive) | 51.6 µM (inactive) | 19.5 µM (inactive) | 61.5 | 20.3 µM (inactive) | 31.8 µM (inactive) | 18.3 µM (inactive) | 33.4 µM (inactive) | 85.1 µM (inactive) | 27.2 µM (inactive) | 21 µM (inactive) | 69.7 µM (inactive) | 25.5 µM (inactive) | 34.5 µM (inactive) | 19.2 µM (inactive) | 80.2 µM (inactive)

Source: ChEMBL document CHEMBL1201862, “PubChem BioAssay data set” (2004)
